# Laboratory results: US6562620B2, “Medium to promote islet cell survival” (McGill University, priority 1997, dated 2003)
# Legend:
# [1] = tested on: erk1 and erk2; experiment: erk1 and erk2 activation in isolated islets; format: cell-based; settings: human islets; FIG. 6
# Text: (§1) The former two pathways are known to be associated with the induction of the apoptotic program, while the latter may be protective.
# Signalling through erk has been associated with cell differentiation and cell survival (FIG. 6).
# [2] = tested on: islets; experiment: Cell death detection ELISA (DNA fragmentation) of cultured islets; format: cell-based, Syrian golden hamsters; settings: 3 days serum then 9 days in 25% DCM or 34 ng/ml IGF-II; mean±SEM, n=6; FIG. 10
# Description: Three experimental groups were designed for this study: Group 1 (control), with 100 islets per culture flask; Group 2 (islets plus ducts), with 100 islets plus 80 ducts per flask; and Group 3 (islets in 25% DCM), with 100 islets per flask.
# All tissues were embedded in rat tail collagen and incubated in a humidified atmosphere of 95% air, 5% CO2 at 37° C. The baseline medium for all groups was DMEM/F12, supplemented with 10% NuSerum for three days at the start of the culture period, followed by 9 days of serum-free incubation. The medium was changed every other day.
# After a 12 day incubation period, the media was removed and 3 ml of collagenase XI (0.25 mg/ml) was added to each flask for 40 min. The islets were hand-picked and washed three times in Hank's buffered salt solution (HBSS, Gibco, Montreal, Quebec, Canada). The presence of DNA fragmentation, a characteristic feature of apoptosis was determined using a cell death detection ELISA (Boehringer Mannheim, Laval, Quebec). The results were expressed as absorbance at 405 nm and corrected for total DNA content. DNA (μg) was measured by fluorometry using disbenzimidazole (Hoechst 33258, Sigma, Montreal, Quebec) as described (Labarca & Pagen, 1987, Analytical Biochemistry 102:44-52).
# The islets were embedded in rat tail collagen and cultured in DMEM/F12 supplemented with 10% NuSerum. […]
# [3] = tested on: p38; experiment: p38 activation in canine islets (Western blot); format: cell-based; settings: collagen 400 μg/ml
# Text: as §1
# Signaling through the p38 MAP kinase is one pathway whose downstream effectors have been implicated in […].
# In addition to growth factors, evidence is provided for the beneficial effect of matrix molecules, e.g. fibronectin for human islets, and collagen for canine islets (FIGS. 4 and 5) The data for p38 activation and its modulation by collagen represents the effect of 200 μg/ml of collagen type 1. Not shown, is that collagen in a concentration of 400 μg/ml will decrease p38 activation by over 50%.
Substance,effect on erk1 and erk2 activation [1],other results
IGF-I: insulin-like growth factor-1,positive effect,–
"IGF-II: insulin-like growth factor II, growth factor added at 34 ng/ml",–,"cell death ELISA (DNA fragmentation), IGF-II study [2]: 2.5 ± 1.0"
collagen,–,decrease of p38 activation [3]: over 50%
insulin,positive effect,–
